Results taken from US20220273926A1, “DRUG DELIVERY USING MICRONEEDLE ARRAYS” (BOARD OF REGENTS OF THE UNIVERSITY OF NEBRASKA, priority 2019, published 2022).
“Also recorded” adds a separate entry of the source. Read-outs that look alike come from different tables or passages of the source.

Key:
[1] = Drug adsorption to the bandage: solution perfused through the MNAs; assay type: physicochemical; settings: perfusion through bandage and MNAs; BSA 54 ng/mL, cefazolin 16 μg/mL
Method: Once the system was characterized, the efficiency of the bandage in drug delivery was evaluated. Initially, the potential drug adsorption to the engineered bandage was to be tested. […] The solution was then collected at different time points after perfusion through the MNAs and the concentration of the drugs determined using a total protein assay (for BSA) and UV-Vis spectrophotometry (for cefazolin).
Drug Delivery Characterization: The potential protein and drug adsorption by the bandage, tubing, and MNAs were investigated by perfusing a solution with known concentrations of cefazolin salt and BSA. 150 μL of the delivered solution was collected at different time points and the concentrations of cefazolin and BSA were determined by measuring the solution absorbance for cefazolin and BCA protein assay kit for BSA.

keratinocytes = test: Scratch test assay on keratinocytes contaminated with S. aureus; assay type: cell-based, human; settings: keratinocyte monolayer contaminated with S. aureus
Method: A standard scratch test assay was used to evaluate the cell migration in presence of bacteria. […] To perform this experiment, the scratch was created over a monolayer of the confluent keratinocytes, which were contaminated with S. aureus in advance. Three groups were used for this set of experiments: (1) cefazolin powder as a positive control, (2) alginate without antibiotic loading as a negative control, and (3) alginate containing cefazolin.
Keratinocytes (1×10^5) were seeded and cultured in a six-well plate and kept overnight to make a confluent monolayer overnight. The 1 mm wide gap scratch was then created onto the monolayer with a 200 μL pipette tip, and floating cells were removed by twice washing with PBS. After the line scratches, 2 mL of DMEM was added for each group. To detect the efficacy of treatments on cell migration, samples were continually imaged for 0, 8, 24, and 48 h. Images of the monolayer were taken by a microscope and cell migration activity was evaluated as the migration distance from the edges of the scratch toward the center of it using Image J software (NIH, Bethesda, Md., USA). For each well, ten images were taken and selected randomly. Experiments were done independently in triplicate.

[2] = after 180 min, target 20 μg/mL
From the text: The intradermal drug delivery kinetics were further evaluated by developing an in vitro model mimicking the structure of wounds in which eschar and granulation tissue separates the endothelial cells from the outside environment. This model, illustrated schematically in FIG. 2a, consisted of a cell culture insert with a porous membrane covered by agarose (3% w/v) with ˜2 mm thickness, and the bottom well represented the environment of endothelial cells.
Assessment of release kinetics: To mimic the chronic wound tissue, 12-well cell culture inserts were filled with 150 μL of 3% (w/v) agarose. […] Inserts were divided into 3 groups (4 replicate/group) with respect to the method of delivery, including topical, MNA, and LJI. To measure the concentration of the delivered solution, at each time point 100 μL was removed and then replaced with the same volume of fresh PBS. After collecting all samples, the concentration was measured by a plate reader (Cytation 5, BioTek) followed by data analysis to extract the related release graphs. In the case of BSA, measurement process was followed based on manufacturer's protocol.

[3] = Cefazolin release from thermo-responsive alginate/PNIPAM patch with heater; assay type: physicochemical; settings: PNIPAM carriers in alginate patch, heat applied; over 1 h
From the text: To minimize the thermal contact resistance between the microheater and the hydrogel layer, the hydrogel was directly cast on top of the heater. Chronic wounds are known for their high rate of exudate generation and thus exudate management is important in the proper function of the sensors and drug delivery modules. The utilized alginate-based hydrogels are known for high water uptake and swelling ratios and have been used in engineering wet wound dressings. In addition, since the sensors are in direct contact with the skin, the swelling of the hydrogels is not expected to affect the readout. To visualize the drug release, rhodamine B was loaded into PNIPAM particles and the system was heated while being monitored under a microscope. […] After applying heat to the alginate patch, the cefazolin release profile was measured over time. […] To assess the possibility of releasing drugs in a dynamic fashion, heat was applied periodically (30 min on, 30 min off) and the drug release amount was determined. […]
Drug Release with Integrated Heaters: Alginate hydrogel with embedded drug microcarriers was attached on the surface of the microheater while 200 μL PBS was added into the plate and electrical voltage was applied to generate heat. The drug released into the solution was evaluated using plate reader.

- delivered into the bottom chamber (overall efficiency of delivery) ([2]; LJI): more than 90%
- delivered into the bottom chamber (overall efficiency of delivery) ([2]; MNAs): ~65%
- delivered into the bottom chamber (overall efficiency of delivery) ([2]; topical (TOP)): ~25%
- drug released [3]: about 80%
Compound: Cc1nnc(SCC2=C(C(=O)O)N3C(=O)[C@@H](NC(=O)Cn4cnnn4)[C@H]3SC2)s1 [cefazolin]
- temporal changes in the drug concentration within the perfused solution [1]: not statistically significant; also recorded: insignificant change in concentration
- cell migration in scratch assay (keratinocytes): rapid migration toward the opening area was observed
